Data reported in paper PMC13188182, “Role of DZ2002 in reducing corneal graft rejection in rats by influencing Th17 activation via inhibition of the PI3K/AKT pathway and downregulation of TRAF1” (Open Life Sciences, 2026).

Target: T1, TRAF1
T1 construct: TRAF1 protein amine-coupled to carboxylated SPR chip
Experiment: surface plasmon resonance, TRAF1 immobilized
Format: binding
Conditions: PBST running buffer; analyte 0-500 μM; Fc2-Fc1 double-referenced

Structure (SMILES): N[C@@H](CCS)C(=O)O [L-homocysteine]
- Kd: 246 µM
